Values joined by “and” are separate entries in the source; they are usually repeats but may differ in a detail not shown here. Equal values may be shown once. Marks after values point to notes of the source that are not given here.
Tests used:
Type in all cases: in vivo, Mice/Balb/c
[1] = tested on: croton oil induced ear edema; test: Croton oil induced ear swelling, 3 hours post sensitization (Example 1); conditions: Hydrocortisone 600 nmol/ear; for ear swelling (difference between the inflamed and intact ear thickness) / % of Ear Thickness Inhibition (inhibition of ear swelling/edema vs Vehicle): 3 hours post croton oil; for ear swelling (difference between the inflamed and intact ear thickness) / Mean Group Ear Swelling (mm) 3 Hours Post Croton Oil MEAN: PEA, CBD 5 mg/ml; for ear swelling (difference between the inflamed and intact ear thickness): MEAN±SEM; for % of Ear Thickness Inhibition (inhibition of ear swelling/edema vs Vehicle) / Mean Group Ear Swelling (mm) 3 Hours Post Croton Oil MEAN: topical 1 hour prior to and 2 hours post sensitization; for % of Ear Thickness Inhibition (inhibition of ear swelling/edema vs Vehicle): 2 mg/ml or 5 mg/ml (PEA, CBD); for Mean Group Ear Swelling (mm) 3 Hours Post Croton Oil MEAN: Amitriptyline, Topiramate, Moclobimide 2 mg/ml
Description: A study was undertaken in order to evaluate the effect of topical preparations of various test items (TI) and TI combined with Croton oil on ear swelling. Ear thickness was measured before croton oil induced ear swelling and 3 hours post ear edema induction. The various TIs were applied topically 1 hour prior to ear edema sensitization and 2 hours post ear edema sensitization. The difference in ear thickness of the intact ear was subtracted from the ear thickness of the inflamed ear. This value is defined as “ear swelling”.
Species/Strain: Mice/Balb/c
Prior to sensitization animals were anesthetized. Ear thickness was measured 24 hours prior to croton oil sensitization; this measurement served as a baseline. On sensitization day, the animals were anesthetized using Ketamine and Xylazine formulation. Then, the animals were administered with TI topically. One hour later the animals were introduced to croton oil sensitization (50 μL). Two hours post croton oil sensitization the animals were administered with TI again. Three hours post croton oil sensitization the ear thickness of the animals were measured again.
TIs were administered twice, the first dose was 1 hour prior to croton oil sensitization and the second time was 2 hours post croton oil sensitization. All TIs were dissolved in 10% Ethanol and were applied topically on the surface of the sensitized ear.
Determination of individual body weights of animals was made one day before sensitization phase. A single person was responsible for ear thickness measurement throughout the entire study. The ear thickness of both left and right ears was measured using analogue calipers (Instrumentation 0.01 mm L-01) on 2 occasions: 24 hours prior to croton oil sensitization, and 3 hours post croton oil sensitization.
All data are presented in MEAN±SEM. T-test, two tailed, unpaired was applied to all data. P value was considered significant if p<0.05.
Ear thickness was measured before Croton oil induced ear sensitization (baseline) and 3 hours post ear edema induction. Treatment with various TI was applied topically 1 hour prior to sensitization and 2 hours post induction. The difference in ear thickness of the intact ear was subtracted from the ear thickness measured of the inflamed ear. This value was referred to as ear swelling.

[2] = tested on: croton oil induced ear edema; test: Croton oil induced ear edema, 6 hours post sensitization (Example 2)
Source text: A study was undertaken in order to evaluate the effect of topical preparations of Hydrocortisone, Betamethasone and PEA at various concentrations (as single agents and in various combinations) on ear edema in mice. […] The difference in ear thickness of the intact ear was subtracted from the ear thickness of the inflamed ear. This value is defined as “ear swelling”.

[3] = tested on: croton oil induced ear edema; test: Croton oil induced ear edema, 6 and 9 hours post sensitization (Example 3); conditions: PEA 1%; for activity in inhibiting ear swelling vs. Vehicle: Betamethasone 4 μg/25 μl per ear; for Mean Left Ear Delta Thickness, Delta + 9 h vs baseline / Mean Left Ear Delta thickness, Delta + 6 h vs baseline / Mean Left Ear Thickness (mm) Day 0 (6 h post sensitization) / Mean Left Ear Thickness (mm) Day 0 (9 h post sensitization): Betamethasone EDmax 4 μg/25 μl per ear; for Mean Left Ear Thickness (mm) Day 0 (6 h post sensitization) / Mean Left Ear Thickness (mm) Day 0 (9 h post sensitization): topical 25 μl per ear prior to sensitization
Description: A study was undertaken in order to determine the effect of topical application of a combined preparation of Betamethasone and PEA on ear edema in mice. Ear thickness was measured before croton oil induced ear swelling and 6 and 9 hours post ear edema induction. […]
The difference in ear thickness of the intact ear was subtracted from the ear thickness of the inflamed ear. This value is defined as “ear swelling”.

[4] = steroid alone at ED50: Hydrocortisone 55 μg/25 μl per ear, Betamethasone 1 μg/25 μl per ear
[5] = steroid alone at EDmax: Hydrocortisone 200 μg/25 μl per ear, Betamethasone 4 μg/25 μl per ear
[6] = topical, steroid alone at calculated ED50: Hydrocortisone 55 μg/25 μl per ear, Betamethasone 1 μg/25 μl per ear
[7] = topical, steroid alone at calculated EDmax: Hydrocortisone 200 μg/25 μl per ear, Betamethasone 4 μg/25 μl per ear

CCCCCCCCCCCCCCCC(=O)NCCO [PEA, N-(2-hydroxyethyl)hexadecanamide]
ear swelling (difference between the inflamed and intact ear thickness) [1]: 0.035±0.012 mm
% of Ear Thickness Inhibition (inhibition of ear swelling/edema vs Vehicle) [1]: 52%
Mean Group Ear Swelling (mm) 3 Hours Post Croton Oil MEAN [1]: 0.268 mm
Mean Left Ear Delta thickness, Delta + 6 h vs baseline ([2]; PEA 0.5% (alone or + Hydrocortisone/Betamethasone ED50)): 0.135
Mean Left Ear Delta thickness, Delta + 6 h vs baseline ([2]; PEA 1% (alone or + Hydrocortisone/Betamethasone ED50)): 0.031*
reducing ear thickness vs. Vehicle ([2]; PEA 1% topical, 6 hours post sensitization): approximately 50%
Mean Left Ear Delta thickness, Delta + 6 h vs baseline ([2]; PEA 5% (alone or + Hydrocortisone/Betamethasone ED50)): 0.062
Left Ear Thickness (mm) Study Day 0 (6 H post sensitization) ([2]; topical 25 μl per ear 0.5 hour prior to sensitization, PEA 0.5% (alone or + Hydrocortisone 55 μg/25 μl or Betamethasone 1 μg/25 μl, ED50)): 0.38 mm
Left Ear Thickness (mm) Study Day 0 (6 H post sensitization) ([2]; topical 25 μl per ear 0.5 hour prior to sensitization, PEA 1% (alone or + Hydrocortisone 55 μg/25 μl or Betamethasone 1 μg/25 μl, ED50)): 0.29±0.004 mm and 0.29 ** mm
Left Ear Thickness (mm) Study Day 0 (6 H post sensitization) ([2]; topical 25 μl per ear 0.5 hour prior to sensitization, PEA 5% (alone or + Hydrocortisone 55 μg/25 μl or Betamethasone 1 μg/25 μl, ED50)): 0.32 mm
activity in inhibiting ear swelling vs. Vehicle ([3]; 6 hours post sensitization): significant activity
activity in inhibiting ear swelling vs. Vehicle ([3]; 9 hours post sensitization): not active
Mean Left Ear Delta Thickness, Delta + 9 h vs baseline [3]: 0.147
Mean Left Ear Delta thickness, Delta + 6 h vs baseline [3]: 0.056*
Mean Left Ear Thickness (mm) Day 0 (6 h post sensitization) [3]: 0.30** mm
Mean Left Ear Thickness (mm) Day 0 (9 h post sensitization) [3]: 0.39 mm

C=C(C)[C@@H]1CCC(C)=C[C@H]1c1c(O)cc(CCCCC)cc1O [CBD, cannabidiol]
ear swelling (difference between the inflamed and intact ear thickness) [1]: 0.020±0.010 mm
% of Ear Thickness Inhibition (inhibition of ear swelling/edema vs Vehicle) [1]: 72%
Mean Group Ear Swelling (mm) 3 Hours Post Croton Oil MEAN [1]: 0.240* mm

CN(C)CCC=C1c2ccccc2CCc2ccccc21 [Amitriptyline, amitriptyline]
% of Ear Thickness Inhibition (inhibition of ear swelling/edema vs Vehicle) [1]: 62%
Mean Group Ear Swelling (mm) 3 Hours Post Croton Oil MEAN [1]: 0.248* mm

CC1(C)O[C@@H]2[C@@H](CO[C@@]3(COS(N)(=O)=O)OC(C)(C)O[C@@H]23)O1 [Topiramate, topiramate]
% of Ear Thickness Inhibition (inhibition of ear swelling/edema vs Vehicle) [1]: 63%
Mean Group Ear Swelling (mm) 3 Hours Post Croton Oil MEAN [1]: 0.243 mm

C[C@H]1C[C@H]2[C@@H]3CCC4=CC(=O)C=C[C@]4(C)[C@@]3(F)[C@@H](O)C[C@]2(C)[C@@]1(O)C(=O)CO [Betamethasone, betamethasone]
Mean Left Ear Delta thickness, Delta + 6 h vs baseline [2, 4]: 0.043
Mean Left Ear Delta thickness, Delta + 6 h vs baseline [2, 5]: 0.031*
Left Ear Thickness (mm) Study Day 0 (6 H post sensitization) [2, 6]: 0.30±0.008 mm
Left Ear Thickness (mm) Study Day 0 (6 H post sensitization) ([2]; topical, steroid alone at calculated ED50: Hydrocortisone 55 μg/25 μl per ear, Betamethasone 1 μg/25 μl per ear, listed as Beta.): 0.30 * mm
Left Ear Thickness (mm) Study Day 0 (6 H post sensitization) [2, 7]: 0.29±0.005 mm
Left Ear Thickness (mm) Study Day 0 (6 H post sensitization) ([2]; topical, steroid alone at calculated EDmax: Hydrocortisone 200 μg/25 μl per ear, Betamethasone 4 μg/25 μl per ear, listed as Beta): 0.29 ** mm
activity in inhibiting ear swelling vs. Vehicle ([3]; 6 hours post sensitization): active
activity in inhibiting ear swelling vs. Vehicle ([3]; 9 hours post sensitization): not active
Mean Left Ear Delta Thickness, Delta + 9 h vs baseline [3]: 0.092#
Mean Left Ear Delta thickness, Delta + 6 h vs baseline [3]: 0.036**
Mean Left Ear Thickness (mm) Day 0 (6 h post sensitization) [3]: 0.27*** mm
Mean Left Ear Thickness (mm) Day 0 (9 h post sensitization) [3]: 0.33 mm

O=C(NCCN1CCOCC1)c1ccc(Cl)cc1 [Moclobimide, moclobemide]
% of Ear Thickness Inhibition (inhibition of ear swelling/edema vs Vehicle) [1]: 52%
Mean Group Ear Swelling (mm) 3 Hours Post Croton Oil MEAN [1]: 0.265 mm

C[C@]12CCC(=O)C=C1CC[C@@H]1[C@@H]2[C@@H](O)C[C@@]2(C)[C@H]1CC[C@]2(O)C(=O)CO [Hydrocortisone, hydrocortisone]
ear swelling (difference between the inflamed and intact ear thickness) [1]: 0.043±0.003 mm
% of Ear Thickness Inhibition (inhibition of ear swelling/edema vs Vehicle) [1]: 40%
Mean Group Ear Swelling (mm) 3 Hours Post Croton Oil MEAN [1]: 0.243 mm
activity compared to vehicle in reducing ear thickness / ear edema ([2]; 6 hours post sensitization, Hydrocortisone 55 and 200 μg/25 μl per ear, Betamethasone 1 and 4 μg/25 μl per ear (calculated ED50 and EDmax)): not active
Mean Left Ear Delta thickness, Delta + 6 h vs baseline [2, 4]: 0.060
Mean Left Ear Delta thickness, Delta + 6 h vs baseline [2, 5]: 0.054
Left Ear Thickness (mm) Study Day 0 (6 H post sensitization) [2, 6]: 0.32 mm
Left Ear Thickness (mm) Study Day 0 (6 H post sensitization) [2, 7]: 0.31 mm

Source: patent US9623000B2, “Compositions and methods for treating inflammatory disorders” (priority 2008, dated 2017)
